From patent US20130280214A1, “POLYCYCLIC HETEROCYCLE DERIVATIVES AND METHODS OF USE THEREOF FOR THE TREATMENT OF VIRAL DISEASES” (Merck Sharp & Dohme Corp., priority 2010, published 2013)
Like-named read-outs stand apart in the source and are kept apart here.

Columns and labels:
HCV replicon = experiment: RHEPLUC assay (replicon luciferase, EC50 of single agents); assay type: cell-based, Hepatitis C virus (HCV); settings: Hepatitis C virus
Method: The previously determined EC50 for each test compound is then placed in the middle of the combination study titration curve.
Test compounds are ordered at 4000× final concentration, one or two days before the assay, and are diluted 1/10 in DMSO (400× concentration). The diluted first test compound (400×) is distributed in a first low dead volume plate as described in FIG. 1. The diluted second test compound (400×) is distributed in a second low dead volume plate as described in FIG. 2.
To obtain maximum luciferase signal (0% inhibition control), 100% DMSO is added to the 200× test compound mix plate. For minimum luciferase signal (100% inhibition control), a known NS5A inhibitor (Compound A, EC50 of 0.01 nM, made as described in International Patent Application No. PCT/US2010/028653) is used at 1 nM final concentration. Accordingly, 6 μL of 200 nM Compound A is added to the 200× test compound mix plate (see FIG. 4).
On the day of the experiment, Complete growth media (10 μL) is added to all wells in a 384 well assay plate, then 150 nL per well from the test compound mix plate is added to the assay plate.
The cell monolayer is rinsed with pre-warmed PBS (˜37° C.), then pre-warmed trypsin (0.25%, ˜37° C.) is added and the cells are incubated for 2 to 5 minutes in 5% CO2 at 37° C. Complete growth media is then added, cells are mixed and counted, and then diluted in complete growth media to a final concentration of 1.0×10^5 cells/mL. […]
Bright-Glo Luciferase reagent is prepared as specified by the kit instructions and kept in the dark until the reagent has reached room temperature. […] The plate is allowed to incubate for 5 minutes at room temperature, then the plate is placed on a reader within 30 minutes after incubation is complete, and the luminescence is monitored at 0.5 seconds per well.
Using the RHEPLUC assay, EC50 values were calculated prior to initiation of combination studies for a selected Polycyclic Heterocycle Derivative of the present invention (compound 2) and for two first additional therapeutic agents of the present invention (compounds F5 and F7).

[1] = test system: genotype 1a replicon cells; experiment: 3-day cell-based HCV replicon assay (Taqman); settings: Hepatitis C virus
Method: The replicon RNA level was measured using real time PCR (Taqman assay). […] EC50 was defined as the concentration of inhibitor necessary to achieve ΔCT=1 over the projected baseline; EC90 the concentration necessary to achieve ΔCT=3.2 over the baseline. Alternatively, to quantitate the absolute amount of replicon RNA, a standard curve was established by including serially diluted T7 transcripts of replicon RNA in the Taqman assay. All Taqman reagents were from PE Applied Biosystems. Such an assay procedure was described in detail in e.g. Malcolm et al., Antimicrobial Agents and Chemotherapy 50: 1013-1020 (2006).

replicon cells = experiment: Cytotoxicity assay (CellTiter Blue); assay type: cell-based; settings: TI=CC50/EC50
Method: (§1) The cytotoxicity of compounds of Table 1 and of the additional therapeutic agents used in the compositions and methods of the present invention can be measure using the assay described below.
(§2) Compounds are ordered 1 or 2 days before the experiment. Compounds and cells are prepared using the method described in Example 2 for the RHEPLUC assay (See FIG. 1) or combination study (See FIG. 2)
(§3) After 3 day incubation of cells with individual test compounds, cytotoxicity is determined using CellTiter Blue as described in the assay protocol below.
(§4) The CellTiter Blue solution (4 mL) is diluted with 1× Dulbecco's PBS (16 mL). 5 μL of the resulting solution is added to each well of the 384 well assay plate containing cells treated with compound for 72 hours. The plate is shaken for 10 seconds, then incubated in 5% CO2 at 37° C. for 1 hour. The plate is then shaken again for 10 seconds and the fluorescence is measured at excitation wavelength 540 nm and emission wavelength 590 nm.
(§5) NOTE: cells (all genotypes and mutants) are cultured in DMEM/10% FBS in the presence of G418. During the assay G418 is absent.
(§6) For cytotoxicity assays data is analyzed to obtain the CC50 of each compound tested alone and in combination. The analysis uses the average of 100% cytotoxicity (media only without cells) and 0% cytotoxicity (100% viability, 0.5% DMSO in the presence of cells) to calculate the percentage of compound cytotoxicity and CC50 using the following 4 parameter equation:
(§7) Wherein average low=100% cytotoxicity (media only) and average high=100% viability (0.5% DMSO).
(§8) CC50 values were calculated for a selected Polycyclic Heterocycle Derivative of the present invention (compound 2) and for […] first additional therapeutic agents of the present invention. The therapeutic index for the selected compounds was also calculated, wherein TI=CC50/EC50.

[2] = Cytotoxicity assay (CellTiter Blue); assay type: cell-based; settings: CellTiter Blue, cells treated 72 hours
Method: as §1, §2, §3, §4, §5, §6, §7, §8

[3] = test system: genotype 1a replicon cells; experiment: 15-day cell-based HCV replicon curing assay; set-up: species or system Hepatitis C virus (HCV); settings: genotype 1a replicon cells treated 15 days
[4] = RHEPLUC assay, single agent, 72 hours incubation

COC(=O)N[C@H](C(=O)N1CCC[C@H]1c1ncc(-c2ccc(-c3cc4cc(-c5cnc([C@@H]6CCCN6C(=O)[C@@H](NC(=O)OC)C(C)C)[nH]5)ccc4o3)cc2)[nH]1)C(C)C [Compound 2]
EC50 (HCV replicon; [4]): 0.004 nM
EC90 ([1]; printed as 1×EC90, read-out: EC90): 0.006 nM
Therapeutic Index (replicon cells): 2425000
CC50 at 72 h [2]: 9700 nM

C=C[C@@H]1C[C@]1(NC(=O)[C@@H]1C[C@@H]2CN1C(=O)[C@H](C(C)(C)C)NC(=O)O[C@@H]1C[C@H]1CCCCCc1nc3ccc(OC)cc3nc1O2)C(=O)NS(=O)(=O)C1CC1 [Compound F5]
EC50 (HCV replicon; [4]): 0.322 nM
EC90 ([1]; printed value is three times the EC90, read-out: 3×EC90): 7.5 nM
Therapeutic Index (replicon cells): 108865
CC50 at 72 h [2]: 35000 nM
NS3 (amino acid residues 1-180) population sequence analysis, resistance mutations [3]: low levels of D168G and P88A

COC(=O)NC(C(=O)N1CCC[C@H]1c1ncc(-c2ccc3oc(-c4ccc(-c5cnc([C@@H]6CCCN6C(=O)[C@H](NC(=O)OC)c6ccccc6)[nH]5)cc4)cc3c2)[nH]1)c1ccccc1 (stereo partly shown) [Compound A, reference compound]
EC50 (HCV replicon; known NS5A inhibitor used as 100% inhibition control, assay of the value not stated): 0.01 nM
